Assay results published in patent US11213522B2, “Autoimmune-induced glutamatergic receptor dysfunction methods and treatments” (SARAH HERZOG MEMORIAL HOSPITAL EZRAT NASHIM ASSOCIATION, priority 2013, dated 2022).

System: Rodent neuron cell cultures treated with anti-NMDAR antibodies
Experiment: Example 3: NMDAR localization in neuron cultures treated with anti-NMDAR antibodies
Format: cell-based
Details: Glycine 100-500 uM; histological measurements
Procedure: Rodent neuron cell cultures are treated with anti-NMDAR antibodies as described in Hughes E G et al., J Neurosci 2012 30(17):5866-75. […] The determination of receptors localization and other relevant measures is based on histological measurements.
Immunohistochemical methods will be applied to document (a) localization of NMDAR and NR1 and NR2 subunits; (b) loss of oligodendrocytes; (c) changes in astrocytes (S100beta) and microglia (cd11b), (d) expression of neurotrophic factors: brain derived neurotrophic factor (BDNF), nerve growth factor (NGF) and ciliary neurotrophic factor (CNTF); (e) markers of neurogenesis—doublecortin (17) and apoptosis—caspase3 (9). Quantification of histological measurements is based on images in several cortical subregions, striatum, […], hippocampus, and cerebellum.

NCC(=O)O [Glycine]
Effect on NMDAR intracellular localization: reversing receptor intracellular localization
